Reference: ChEMBL document CHEMBL1129745, “Synthesis and antibacterial activity of new tropone-substituted phenyloxazolidinone antibacterial agents 1. Identification of leads and importance of the tropone substitution pattern” (1996)
Values after ≈ are worked out from the molar mass of the structure shown.

Columns and labels:
Format in all cases: functional
Streptococcus pneumoniae = assay: Compound was tested in vitro for antibacterial activity against Streptococcus pneumoniae UC 9912.
Enterococcus faecalis = assay: Compound was tested in vitro for antibacterial activity against Enterococcus faecalis UC 9217.
Escherichia coli = assay: Compound was tested in vitro for antibacterial activity against Escherichia coli extracts, using cell free prokaryotic transcription coupled translation (T/T) assay.; design: concentration or dose not given beside the values; conditions: dose or concentration not given here
Mus musculus = assay: Amount of drug required (mg/kg body weight/dose) to cure 50% of infected mice subjected to a lethal systemic infection with Staphylococcus aureus UC 9213
[1] = tested on: Staphylococcus epidermidis; assay: Compound was tested in vitro for antibacterial activity against methicillin-resistant Staphylococcus epidermidis UC 12084
Staphylococcus aureus [2] = assay: Compound was tested in vitro for antibacterial activity against methicillin-resistant Staphylococcus aureus UC 6685.
Staphylococcus aureus [3] = assay: Compound was tested in vitro for antibacterial activity against methicillin-susceptible Staphylococcus aureus UC 9213.
[4] = tested on: Mycobacterium tuberculosis; assay: Compound was tested in vitro for antibacterial activity against Mycobacterium tuberculosis H37 Rv.

Structure (SMILES)	MIC (Streptococcus pneumoniae) [µg/mL]	MIC (Enterococcus faecalis) [µg/mL]	inhibition (Escherichia coli) [%]	ED50 (Mus musculus) [mg/kg]	MIC [1] [µg/mL]	MIC (Staphylococcus aureus [2]) [µg/mL]	MIC (Staphylococcus aureus [3]) [µg/mL]	MIC [4] [µg/mL]
CN[C@H](CC(C)C)C(=O)N[C@H]1C(=O)N[C@@H](CC(N)=O)C(=O)N[C@H]2C(=O)N[C@H]3C(=O)N[C@H](C(=O)N[C@H](C(=O)O)c4cc(O)cc(O)c4-c4cc3ccc4O)[C@H](O)c3ccc(c(Cl)c3)Oc3cc2cc(c3O[C@@H]2O[C@H](CO)[C@@H](O)[C@H](O)[C@H]2O[C@H]2C[C@](C)(N)[C@H](O)[C@H](C)O2)Oc2ccc(cc2Cl)[C@H]1O [VANCOMYCIN]	0.5 (≈ 0.345 µM)	–	–	–	–	–	–	–
C=CCNc1ccc(-c2ccc(N3CC(CNC(C)=O)OC3=O)cc2)ccc1=O (stereo not drawn)	0.5 (≈ 1.27 µM)	1 (≈ 2.54 µM)	81	12.7	0.5 (≈ 1.27 µM)	1 (≈ 2.54 µM)	2 (≈ 5.08 µM)	–
CC(=O)NC[C@H]1CN(c2ccc(C(C)=O)cc2)C(=O)O1 (racemic) [DUP-721]	2 (≈ 7.24 µM)	8 (≈ 29 µM)	45	9.4	2 (≈ 7.24 µM)	4 (≈ 14.5 µM)	8 (≈ 29 µM)	≤ 16
COc1cccc(-c2ccc(N3CC(CNC(C)=O)OC3=O)cc2)cc1=O (stereo not drawn)	0.5 (≈ 1.36 µM)	2 (≈ 5.43 µM)	90	–	0.5 (≈ 1.36 µM)	2 (≈ 5.43 µM)	4 (≈ 10.9 µM)	≤ 1
COc1cc(-c2ccc(N3CC(CNC(C)=O)OC3=O)cc2)cccc1=O (stereo not drawn)	4 (≈ 10.9 µM)	32 (≈ 86.9 µM)	39	> 20	8 (≈ 21.7 µM)	16 (≈ 43.4 µM)	64 (≈ 174 µM)	≤ 16
C=CCOc1ccc(-c2ccc(N3CC(CNC(C)=O)OC3=O)cc2)ccc1=O (stereo not drawn)	0.25 (≈ 0.634 µM)	2 (≈ 5.07 µM)	74	7.9	0.5 (≈ 1.27 µM)	1 (≈ 2.54 µM)	4 (≈ 10.1 µM)	–
COc1ccc(-c2ccc(N3CC(CNC(C)=O)OC3=O)cc2)ccc1=O (stereo not drawn)	0.25 (≈ 0.679 µM)	1 (≈ 2.71 µM)	89	–	0.5 (≈ 1.36 µM)	1 (≈ 2.71 µM)	2 (≈ 5.43 µM)	≤ 1
CC(=O)NCC1CN(c2ccc(-c3ccc(N4CCOCC4)c(=O)cc3)cc2)C(=O)O1 (stereo not drawn)	0.5 (≈ 1.18 µM)	1 (≈ 2.36 µM)	81	–	0.5 (≈ 1.18 µM)	2 (≈ 4.72 µM)	2 (≈ 4.72 µM)	≤ 1
C/N=c1\ccc(-c2ccc(N3CC(CNC(C)=O)OC3=O)cc2)ccc1O (stereo not drawn)	0.25 (≈ 0.68 µM)	1 (≈ 2.72 µM)	–	4.6	0.25 (≈ 0.68 µM)	1 (≈ 2.72 µM)	2 (≈ 5.44 µM)	–
C=CCNc1cccc(-c2ccc(N3CC(CNC(C)=O)OC3=O)cc2)cc1=O (stereo not drawn)	0.5 (≈ 1.27 µM)	1 (≈ 2.54 µM)	80	12.5	0.5 (≈ 1.27 µM)	1 (≈ 2.54 µM)	2 (≈ 5.08 µM)	–
C#CCNc1cccc(-c2ccc(N3CC(CNC(C)=O)OC3=O)cc2)cc1=O (stereo not drawn)	0.5 (≈ 1.28 µM)	1 (≈ 2.55 µM)	76	3.4	1 (≈ 2.55 µM)	1 (≈ 2.55 µM)	2 (≈ 5.11 µM)	≤ 1
